Assay results from patent EP3108900B1, “PROTOTYPE SYSTEMS OF THERANOSTIC BIOMARKERS FOR IN VIVO MOLECULAR MANAGEMENT OF CANCER” (EPOS-Iasis Research and Development, Ltd, priority 2015, dated 2016).
Several values for one entry are separate records, joined by “and”; a condition that tells them apart may be missing. Identical values can stand only once. Like-named read-outs stand apart in the source and are kept apart here.

What was measured:
[1] = test system: LoVo cells; assay: MTT colorimetric assay (antiproliferative efficacy); type: cell-based
[2] = test system: colon cancer cells (SW480); assay: antiproliferative effect / cell viability; type: cell-based; details: control = no drug
Protocol: The antiproliferative effect of the following compounds A1F, B1F, C1F and D1F were tested on colon cancer cells (SW480). [drawing 94] [drawing 95]

[3] = test system: SW620 cells; assay: label-free temporal and quantitative pharmacoproteomics; type: cell-based
Protocol: The following experiment was performed to uncover new biomarkers of therapeutic response to the anticancer efficacy of the natural product based theranostic systems of the present invention.
In this experiment, SW620 cells were seeded in T75 flasks in DMEM, 10% FBS and 1% Penicillin/Streptomycin (all from Gibco). The cells were allowed to attach overnight. The following day the medium was removed and fresh medium containing 0.04 mM of either γT (γ-tocotrienol) or DCE-γT (diluted in absolute ethanol; final concentration of ethanol in the medium was 0.1% v/v). For control untreated cells, equal amount of fresh medium (containing ethanol at 0.1% v/v final concentration) was added.
SW620 cells were harvested after 24, 36 and 48 hrs of incubation with γT or DCE-γT. Briefly, the medium was removed and the cells were rinsed three times with PBS (without Ca, Mg) (Gibco). Fresh PBS was added and the cells were scraped off the flasks and collected in tubes. Collected cells were centrifuged at 1000rpm (165g) for 3min and the supernatant was removed. The cell pellet was re-suspended in PBS and the centrifugation step was repeated. The supernatant was removed and the cells in minimal residual PBS were snap-freezed in liquid nitrogen. Once frozen the cells were stored in -80°C until the proteomics analysis.
In terms of data analysis, a threshold of relative protein abundance equal or greater than 1.5-fold increase or decrease was set.

[4] = target: T1, EGFR membrane tyrosine kinase receptor (Homo sapiens, UniProt P00533); assay: FRET assay in cells transfected with EGFR-Luc plasmid; type: cell-based; details: EGFR negative colon cancer cells transiently transfected with EGFR-Luc plasmid
T1 construct: expressed in transfected cells
Protocol: The fluorescent esters of the natural products disclosed herein can also be used as molecular probes for deciphering the interaction between the natural product and potential biomarkers in cancer cells. EGFR negative colon cancer cells were transiently transfected with a rationally designed EGFR-Luc plasmid and incubated with the DCE-γ-Tocotrienol ester. Bioluminescence of the Luciferase (donor) was assessed against the fluorescence signal of either the DCE-γ-Tocotrienol ester or the hydrolysis product (acceptor).

[5] = in vivo biodistribution, quantitative fluorescence imaging
[6] = target: EGFR-Luc and Grb2-GFP (Homo sapiens, UniProt P00533); assay: BRET assay of EGFR-Luc and Grb2-GFP interaction; type: cell-based; details: interaction between EGFR-Luc and Grb2-GFP
[7] = SW620 cells, 0.04 mM, versus control untreated cells

Question: Which antiproliferative efficacy [1] does the source give for `CC1(C)C(/C=C/C=C/C=C/C=C2\N(CCCCS(=O)(=O)O)c3ccc4ccccc4c3C2(C)C)=[N+](CCCCS(=O)(=O)[O-])c2ccc3ccccc3c21` [free cyanine dye, indocyanine green] here?
Answer: Its antiproliferative efficacy is “did not exhibit any antiproliferative effects”.

Question: For `C=CC(=O)Nc1cc2c(Nc3ccc(Br)cc3)ncnc2cc1NC(=O)CCl` [A1F], which “viability of the cells with respect to the control” value (from here on “viability of the cells”) [2] is on record?
Answer: The value was “reduce the viability of the cells”.

Question: With `CC(C)=CCC/C(C)=C/CC/C(C)=C/CC[C@]1(C)CCc2cc(O)c(C)c(C)c2O1` [γT, γ-tocotrienol, reference compound] as the compound, how does the “decrease of protein level of histone H2B types” value [3, 7] read?
Answer: The value was 1.8 fold.

Question: And the “decrease of protein level of histone H3 types” value [3, 7]?
Answer: The value was “at least 3.7 fold”.

Question: What about the “decrease of protein level of hnRNPs” value [3, 7] of the same compound?
Answer: Its value is “at least 2 fold”.

Question: And the “decrease of protein level of snRNPs / certain snRNP components” value [3, 7]?
Answer: Its value is 1.8 fold.

Question: And the “increase of histone H2A.Z” value [3, 7]?
Answer: The value was 24 fold.

Question: And the “increase of the level of RNA helicases” value [3, 7]?
Answer: Its value is no less than 1.9 fold.

Question: And the “increase of the level of certain snRNP components” value [3, 7]?
Answer: Its value is no less than 3 fold.

Question: And the “increase of the level of transcription regulators/co-factors” value [3, 7]?
Answer: The value was no less than 2 fold.

Question: Which “viability of the cells” value [2] does the source give for `C=CC(=O)Nc1cc2c(Nc3ccc(C(C)(C)C)cc3)ncnc2cc1NC(=O)CCl` [D1F] here?
Answer: The value was “reduce the viability of the cells”.

Question: With `C=CC(=O)Nc1cc2c(Nc3ccc(C(C)C)cc3)ncnc2cc1NC(=O)CCl` [B1F] as the compound, how does the “viability of the cells” value [2] read?
Answer: The value was “reduce the viability of the cells”.

Question: With “dicarboxylic ester of γ-Tocotrienol [DCE-γT]” as the compound, how does the “decrease of DNA repair factors” value [3] read?
Answer: The value was 2 fold.

Question: What about the “decrease of protein level of histone H3 types” value [3] of the same compound?
Answer: The value was “at least 6 fold”.

Question: And the “decrease of protein level of snRNPs / certain snRNP components” value [3]?
Answer: The value was 2 fold.

Question: And the “increase of histone H2A.Z” value [3]?
Answer: Its value is 23 fold.

Question: What about the “increase of histone H3 forms” value [3] of the same compound?
Answer: The value was no less than 1.8 fold.

Question: What about the “number of proteins whose expression was elicited” value [3] of the same compound?
Answer: Its value is 37 proteins and 30 proteins and 29 proteins.

Question: What about the protein modulation [3] of the same compound?
Answer: Its protein modulation is “statistically significant modulation of key proteins”.

Question: And the BRET signal [4]?
Answer: Its BRET signal is “amplified FRET signal”.

Question: And the “time of peak of fluorescent signal” value ([5]; in vivo biodistribution, uptake as a function of time)?
Answer: Its value is 30 min.

Question: And the “brain uptake / blood brain barrier passage” value ([5]; mouse brain parenchyma cells, data not shown)?
Answer: Its value is “able to pass the blood brain barrier”.

Question: What about the “activation within the EGFR axis (BRET signals)” value [6] of the same compound?
Answer: Its value is “neither the ester nor the hydrolysis products elicit any unwanted activation”.

Question: Which “viability of the cells” value [2] does the source give for `C=CC(=O)Nc1cc2c(NCc3cccc4ccccc34)ncnc2cc1NC(=O)CCl` [C1F] here?
Answer: The value was “reduce the viability of the cells”.
